The values that follow come from patent US9248134B1, “Fe(III) complex compounds for the treatment and prophylaxis of iron deficiency symptoms and iron deficiency anemias” (Vifor (International) AG, priority 2013, dated 2016).

In the test the test system is Male NMRI (SPF) mice fed a low-iron diet. Briefly: Iron utilization in mouse model (low-iron diet). Conditions: stomach tube, 2 mg iron/kg body weight/day, days 1-5 and 8-12; utilization on day 15 calculated from hemoglobin increase and body weight increase. Format: in vivo. The procedure: The excellent Fe utilizations that can be accomplished through the Fe complexes according to the invention were measured by means of the following mouse model.
Male NMRI (SPF) mice (approximately 3 weeks old) were fed a low-iron diet (approx. 5 ppm iron) for approximately 3 weeks. The iron complexes were then administered to them by means of a stomach tube (2 mg iron/kg body weight/day) for 2 times 5 days, with an interruption of 2 days (days 1-5 and 8-12). 6 mice were the control group (negative control) and were administered with water instead. Utilization on day 15 was calculated from the hemoglobin increase and the body weight increase in accordance with the formula
[formula] • 0.07=Factor for 70 ml blood per kg body weight (BW) • 0.0034=Factor for 0.0034 g Fe/g Hb • Hb1=Hemoglobin level (g/l) on day 1 • Hb2(3)=Hemoglobin level (g/l) on day 8 (or 15) • BW4=body weight (g) on day 1 • BW9(14)=body weight (g) on day 8 (or 15) • Hb1 Control=average hemoglobin level (g/l) on day 1 in the control group, • Hb2(3) Control=average hemoglobin level (g/l) on day 8 (or 15) in the control group, • BW4 Control=average body weight (g) on day 1 in the control group, • BW9(14) Control=average body weight (g) on day 8 (or 15) in the control group, • Fe Dos.=entire administered iron (mg Fe) over 5 or 10 days, • Fe ut.=(Hb2(3)*BW9(14)−Hb1*BW4)*0.07*0.0034 (mg Fe) • Δ Utilization=Fe tot. utilized (examined group)−Fe ut. Control group, utilized from food, (mg Fe)

With “Tris-(3-hydroxy-N,N-dimethylisonicotinamide) iron(III) complex [Example 1]”, the “Utilization n 15 d (abs. %)” value is on record as 68 abs. %.

Take “Tris-(3-hydroxy-N-(2-methoxyethyl)isonicotinamide) iron(III) complex [Example 7]”: the “Utilization n 15 d (abs. %)” value is listed as 76 abs. %.

In the case of “Tris-(N-butyl-3-hydroxyisonicotinamide) iron(III) complex [Example 6]”, the “Utilization n 15 d (abs. %)” value is 76 abs. %.
